Results on two compounds are retold here after article PMC4104029, “Mechanism of Action of Compound-13: An α1-Selective Small Molecule Activator of AMPK” (Chemistry & Biology, 2014).

Molecules are shown by their SMILES.

The target in one test is T1, AMPK α2/α1 HOOK β1γ1 (Homo sapiens, UniProt P54619+P54646, A386E/C382H/K379R/P383T).
T1 construct: 6×His (N); made in house; host or cells: E. coli (tricistronic pET15-b construct)
The test is described as follows: Chimeric AMPK complex activation assay. The test is classed as biochemical. Conditions: complex expressed in E. coli; read-out: EC50, allosteric activation. The text has this:
Figure 3 Regulatory Elements within the α-Linker Determine the Isoform Specificity of C2 (A) Diagram illustrating the domain organization of the AMPKα subunit with a global pairwise alignment of a section of the α-linker of human AMPKα1 (Q13131) and AMPKα2 (P54646). Regulatory elements in the α-linker are highlighted, including the α-hook as originally defined by [Xiao et al. (2011)] (pink) and the reassigned sequence (also known as α-RIM2) shaded in orange. The secondary structure for α1 is derived from PDB ID 2Y94. The table summarizes the sequences of the α1/α2 chimeras produced to examine the role of various structural elements in the activation of α2β1γ1 complexes by C2. (B–E) Human AMPKα1/α2 chimeras (defined in A) were generated as complexes with β1γ1 in E. coli. Purified active complexes were assayed for the activation of phosphotransferase activity by AMP and C2, as described in Figure 1. Results (line graphs) are expressed as the fold increase in activity relative to reactions performed in the absence of compound and represent the mean ± SD of three independent experiments. Complexes were also assayed for protection against dephosphorylation and inactivation by PP2Cα, as described in Figures 2C and 2D. Results (bar charts) are expressed as the mean (percentage of control) ± SD of three independent experiments. Representative blots of pT172 and total AMPKα are shown below the bar charts. TEXT PRINTED IN THE PICTURE: (B) C2: AMPK211 - α2/α1 CAT: EC50: ND | (B) AMP: AMPK211 - α2/α1 CAT: EC50: 1.3 ± 0.2 μM | (C) C2: AMPK211 - α2/α1 REG: EC50: 0.009 ± 0.0006 μM | (C) AMP: AMPK211 - α2/α1 REG: EC50: 3.1 ± 0.3 μM | (D) C2: AMPK211 - α2/α1 HOOK: EC50: ND | (D) AMP: AMPK211 - α2/α1 HOOK: EC50: 1.4 ± 0.2 μM | (E) C2: AMPK211 + α2/α1 LOOP: EC50: 0.013 ± 0.001 μM | (E) AMP: AMPK211 + α2/α1 LOOP: EC50: 2.7 ± 0.3 μM […]
AMPK phosphotransferase activity was assayed in reactions (50 μl) containing 50 mM HEPES, pH 7.4, 10 mM MgCl2, 0.1 mM EGTA, 1 mM DTT, 0.01% BRIJ-35, 100 μM [γ-^32P]ATP (∼250 CPM⋅pmol^−1) and 200 μM AMARA (AMARAASAAALARRR). Reactions were started by the addition of AMPK (5 mU), incubated for 20 min at 30°C and quenched by spotting onto P81 and immersion in 75 mM H3PO4. Washed filters were dried and [^32P] incorporation determined by Cherenkov counting. AMPK activity in cell extracts was determined by immunoprecipitation with AMPKα1 or AMPKα2 antibodies from 50 μg material, as previously described ([Hunter et al., 2011]). […]

In test [1] the target is T2, WT FLAG-α2, β1, and γ1 in COS1 cells (Homo sapiens, UniProt P54619+P54646).
T2 construct: expressed in transfected cells; host or cells: COS-1 cells
Briefly: Kinase activity in anti-FLAG immunoprecipitates from treated COS1 cells. The test is classed as cell-based. Particulars: up to 100 μM, 1 h. The text has this: (Needleman and Wunsch, 1970) and edited using ESPript (Gouet, et al., 2003). Secondary structure was derived from PDBID 2Y94. The phosphotransferase domain is shaded green (T-loop phosphorylation site is indicated with a star), the autoinhibitory domain in blue and the C-terminal domain in yellow. Regulatory elements in the α-linker are also indicated: α-hook in pink and α-RIMs in orange. Black lines indicate the position of the epitopes recognised by α-subunit specific antibodies used in this study. (B) COS-1 cells were seeded into 6-well plates and transiently transfected with pCMV-AMPKβ1, pCMV-AMPKγ1 and either pCMV-FLAG-AMPKα2 WT or pCMV-FLAG-AMPKα2/α1 LOOP chimera using FuGENE HD.
After 24 h cells were treated with the indicated compounds for 1 h and kinase activity determined in anti-FLAG immunoprecipitates under standard conditions. […]
Mouse hepatocytes were incubated with the indicated compounds in the absence (Resting) or presence of 10 mU/ml insulin for 60 min. Lysates were analysed by Western blotting using the indicated antibodies. […]
Yeast acetate CoA ligase (Sigma) was assayed in reactions containing 50 mM TES pH 7.4, 0.1 mM EDTA, 5 mM MgCl2, 4 mM ATP, 0.2 mM coenzyme A, 5 mM DTT and increasing concentrations of C2 and C13 (0 – 100 μM). The formation of pyrophosphate (PPi) was monitored by reduction of PPi-molybdate complexes as described in Methods. […]

T1 sequence (P54646 whole entry K379R/C382H/P383T/A386E): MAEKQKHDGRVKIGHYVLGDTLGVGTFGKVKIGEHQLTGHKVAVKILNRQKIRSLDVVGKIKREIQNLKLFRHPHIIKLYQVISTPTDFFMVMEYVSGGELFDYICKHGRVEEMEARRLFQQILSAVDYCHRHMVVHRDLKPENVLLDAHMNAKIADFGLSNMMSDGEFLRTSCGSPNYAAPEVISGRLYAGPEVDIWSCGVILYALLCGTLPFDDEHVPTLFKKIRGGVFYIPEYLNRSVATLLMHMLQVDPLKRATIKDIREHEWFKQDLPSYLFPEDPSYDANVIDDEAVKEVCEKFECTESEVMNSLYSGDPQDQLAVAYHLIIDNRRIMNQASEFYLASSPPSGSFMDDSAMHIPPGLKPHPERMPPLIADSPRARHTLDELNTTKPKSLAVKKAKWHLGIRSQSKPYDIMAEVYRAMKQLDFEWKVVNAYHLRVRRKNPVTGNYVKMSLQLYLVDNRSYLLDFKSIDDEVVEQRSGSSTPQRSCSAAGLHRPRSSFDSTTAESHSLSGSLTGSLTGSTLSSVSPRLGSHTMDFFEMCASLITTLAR
T1 sequence (Q9Y478 whole entry partner): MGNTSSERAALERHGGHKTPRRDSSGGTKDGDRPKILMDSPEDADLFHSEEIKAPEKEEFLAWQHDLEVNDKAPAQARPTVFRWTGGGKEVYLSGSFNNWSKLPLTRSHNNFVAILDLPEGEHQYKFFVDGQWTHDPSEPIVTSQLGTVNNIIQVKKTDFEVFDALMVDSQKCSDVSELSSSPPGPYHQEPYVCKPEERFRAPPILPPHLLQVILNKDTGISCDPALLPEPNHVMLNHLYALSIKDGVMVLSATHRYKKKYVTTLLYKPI
T1 sequence (P54619 whole entry): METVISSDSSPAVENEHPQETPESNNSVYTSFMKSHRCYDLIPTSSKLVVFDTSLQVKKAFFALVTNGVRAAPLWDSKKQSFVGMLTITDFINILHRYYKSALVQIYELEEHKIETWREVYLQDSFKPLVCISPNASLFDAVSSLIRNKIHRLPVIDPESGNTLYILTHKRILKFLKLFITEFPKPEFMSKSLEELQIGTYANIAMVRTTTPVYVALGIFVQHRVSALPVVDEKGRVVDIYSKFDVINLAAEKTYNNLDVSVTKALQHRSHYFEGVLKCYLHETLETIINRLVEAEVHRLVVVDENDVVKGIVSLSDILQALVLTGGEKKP
T2 sequence (P54646 whole entry): as the sequence (P54646 whole entry K379R/C382H/P383T/A386E) above, with R379K, H382C, T383P, E386A counted along it
T2 sequence (Q9Y478 whole entry partner): as the sequence (Q9Y478 whole entry partner) above
T2 sequence (P54619 whole entry): as the sequence (P54619 whole entry) above

As to `Nc1ncnc2c1ncn2[C@@H]1O[C@H](COP(=O)(O)O)[C@@H](O)[C@H]1O` [AMP, reference compound], on AMPK α2/α1 HOOK β1γ1, the concentration giving a half-maximal response (EC50) (usually the concentration at which the effect is half-maximal) is 1400 ± 200 nM.
In the case of `CC(C)C(=O)OCOP(=O)(OCOC(=O)C(C)C)c1ccc(C2=NOC(=O)C2)o1` [Compound C13], the “kinase activation in cells” value in test [1] is “unresponsive”.
